Results published in publication PMC11990108, “Anti-HIV Activity of Tigliane Derivatives from Euphorbia nicaeensis Roots” (Molecules, 2025).
Like-named read-outs stand apart in the source and are kept apart here.

Assays:
HIV-1 = tested on: HIV-1; parameters: method as in PMID 32229336, PMID 21561135, PMID 33172265, PMID 34445872; settings: other tiglianes from the literature; ref [25],[26],[27],[28],[29]; read-out: IC50 anti-HIV-1 activity; cited from earlier work
[1] = cellular toxicity in uninfected MT-4 cells (MTS method); assay type: cell-based; settings: human
Experimental: (§1) The MT-4 cell line was a kind gift from Dr. L. Montagner (at that time at the Pasteur Institute; Paris, France). This cell line was cultured in RPMI medium (Thermo Fisher Scientific, Waltham, MA, USA) containing 10% fetal bovine serum (FBS; Thermo Fisher Scientific, Waltham, MA, USA) and 2 mM L-glutamine (Thermo Fisher Scientific, Waltham, MA, USA).
(§2) To determine the anti-HIV-activity of the compounds, MT-4 cells (5 × 10^4 cells) were treated with 5-fold dilutions of the compounds for 30 min at 37 °C, 5% CO2 in 96-well-plates. After 30 min, cells were infected with 100 TCID50 (tissue culture infective dose 50%) HIV-1 (NL4.3) or HIV-2 (ROD) virus stocks. After five days of incubation (37 °C, 5% CO2), the cytopathic effect was checked microscopically, and cell viability was evaluated using the MTS/PES-based CellTiter 96 Aqueous One Solution Cell Proliferation assay (Promega Madison, WI, USA). Absorbance at 490 nm was measured using the VersaMax ELISATM microplate reader (Molecular Devices) and analyzed with the SoftMax Pro software (Molecular Devices, Version 4.0, www.moleculardevices.com, accessed on 10 January 2015). The IC50-values were calculated based on the absorbance signals measured in the negative (i.e., untreated and uninfected cells) and positive (i.e., untreated virus-infected cells) control samples.
The CC50 or 50% cellular cytoxic concentration of compounds was determined from the reduction of viability of uninfected MT-4 cells or PBMCs exposed to the compounds, as measured by the MTS method described above.

HIV-1 NL4.3 = test: anti-HIV replication assay, HIV-1 NL4.3 in MT-4 cells (MTS/PES viability readout); assay type: cell-based
Experimental: as §1
(§3) The HIV-1 strain NL4.3 (X4) and HIV-2 strain ROD (X4/R5) were obtained from the National Institute of Allergy and Infectious Disease AIDS program (Bethesda, MD, USA) and the Medical Research Council (MRC, London, UK), respectively. The HIV-1 strain HE (X4/R5) was originally isolated from a AIDS patient and was routinely cultured in MT-4 cells. The 50% tissue culture infectious doses of the virus stocks were used in the infection assays.
as §2

HIV-2 ROD = test: anti-HIV replication assay, HIV-2 ROD in MT-4 cells (MTS/PES viability readout); assay type: cell-based; settings: Human immunodeficiency virus 2, MT4, 120 h, read-out: IC50 HIV-2
Experimental: as §1, §3, §2

[2] = Human immunodeficiency virus 1, MT4, 120 h, read-out: IC50 HIV-1
[3] = Human immunodeficiency virus 1, MT4, read-out: IC50 values, anti-HIV activity

For `CCCCCCCCCCCCCCCC(=O)O[C@@]12C[C@@H](C)[C@@]3(O)[C@@H](C=C(CO)C[C@]4(O)C(=O)C(C)=C[C@@H]34)[C@@H]1C2(C)C` [12-deoxyphorbol-13-hexadecanoate], the IC50 (HIV-1) is listed as 0.022 µM.

Compound `c1cc(CN2CCCNCCNCCCNCC2)ccc1CN1CCCNCCNCCCNCC1` [AMD3100, reference compound] has a CC50 at 5 days [1] greater than 10 µM, an IC50 (HIV-1 NL4.3; Human immunodeficiency virus 1, MT4, 120 h, HIV-1 NL4.3 replication in MT-4 cells, five days, read-out: IC50 HIV-1) of 0.008 ± 0.002 µM and an IC50 (HIV-2 ROD; HIV-2 ROD replication in MT-4 cells, five days) of 0.0075 ± 0.0005 µM.

Compound `CC(=O)O[C@@]12[C@H](OC(=O)c3ccccc3)[C@@H](C)[C@]3(O)[C@@H]4C=C(C)C(=O)[C@@H]4CC(C)=C[C@H]3[C@@H]1C2(C)C` [Compound 1, 13α-Acetyloxy-12β-benzoyloxy-4-epi-4,20-dideoxyphorbol] has a CC50 at 5 days [1] of 42 µM, an IC50 (HIV-1 NL4.3; [2]) greater than 42 µM and an IC50 (HIV-2 ROD) of 9.4 ± 1.4 µM.

Work on `CC(=O)O[C@@]12[C@H](OC(=O)c3ccccc3)[C@@H](C)[C@]3(O)[C@@H]4C=C(C)C(=O)[C@H]4CC(C)=C[C@H]3[C@@H]1C2(C)C` [Compound 2, 13α-Acetyloxy-12β-benzoyloxy-4,20-dideoxyphorbol] yielded a CC50 at 5 days [1] of 94 µM, an IC50 (HIV-1 NL4.3; [2]) of 7.5 ± 0.2 µM and an IC50 (HIV-1 NL4.3; [3]) of 1.1 to 7.47 µM. It also gave an IC50 (HIV-2 ROD) of 1.7 ± 1.3 µM.

`CC1=C[C@H]2[C@@H]3C(C)(C)[C@]3(OC(=O)CC(C)C)[C@H](OC(=O)c3ccccc3)[C@@H](C)[C@]2(O)[C@@H]2C=C(C)C(=O)[C@@H]2C1` [Compound 3, 12β-Benzoyloxy-13α-isovaleryloxy-4-epi-4,20-dideoxyphorbol] showed a CC50 at 5 days [1] of 17.6 ± 0.3 µM, an IC50 (HIV-1 NL4.3; [2]) greater than 18 µM and an IC50 (HIV-2 ROD) greater than 18 µM.

Work on `CC(=O)O[C@@H]1[C@@H](C)[C@]2(O)[C@@H]3C=C(C)C(=O)[C@@H]3CC(C)=C[C@H]2[C@@H]2C(C)(C)[C@]12OC(=O)CC(C)C` [Compound 4, 12β-Acetyloxy-13α-isovaleryloxy-4-epi-4,20-dideoxyphorbol] yielded a CC50 at 5 days [1] of 52 µM, an IC50 (HIV-1 NL4.3; [2]) greater than 52 µM and an IC50 (HIV-2 ROD) greater than 52 µM.

For `CC1=C[C@H]2[C@@H]3C(C)(C)[C@]3(OC(=O)C(C)C)[C@H](OC(=O)c3ccccc3)[C@@H](C)[C@]2(O)[C@@H]2C=C(C)C(=O)[C@@H]2C1` [Compound 5, 12β-benzoyloxy-13α-isobutanoyloxy-4-epi-4,20-dideoxyphforbol], the CC50 at 5 days [1] was 33.5 ± 0.4 µM, the IC50 (HIV-1 NL4.3; [2]) was greater than 34 µM and the IC50 (HIV-2 ROD) was 4.6 ± 2.3 µM.

Work on `CC(=O)O[C@@H]1[C@@H](C)[C@]2(O)[C@@H]3C=C(C)C(=O)[C@@H]3CC(C)=C[C@H]2[C@@H]2C(C)(C)[C@]12OC(=O)C(C)C` [Compound 6, 12β-acetyloxy-13α-isobutanoyloxy-4-epi-4,20-dideoxyphorbol] yielded a CC50 at 5 days [1] of 101 µM, an IC50 (HIV-1 NL4.3; [2]) greater than 101 µM and an IC50 (HIV-2 ROD) greater than 101 µM.

Work on `CC(=O)OCC1=C[C@H]2[C@@H]3C(C)(C)[C@]3(OC(C)=O)[C@H](OC(=O)c3ccccc3)[C@@H](C)[C@]2(O)[C@@H]2C=C(C)C(=O)[C@@H]2C1` [Compound 8, 13α,20-diacetylohy-12β-benzoyloxy-4-epi-4-deoxyphorbol] yielded a CC50 at 5 days [1] of 20.8 ± 5.6 µM, an IC50 (HIV-1 NL4.3; [2]) of 3.3 ± 1.8 µM and an IC50 (HIV-1 NL4.3; [3]) of 1.1 to 7.47 µM. For the same compound, the IC50 (HIV-2 ROD) was 1.1 ± 0.8 µM.

For `C[C@H](Cn1cnc2c(N)ncnc21)OCP(=O)(O)O` [PMPA, reference compound], the CC50 at 5 days [1] was greater than 100 µM, the IC50 (HIV-1 NL4.3; [2]) was 2.4 ± 0.7 µM and the IC50 (HIV-2 ROD) was 0.7 ± 0.5 µM.

In the case of `CCCCCCCC(=O)O[C@@]12[C@H](OC(=O)c3ccccc3)[C@@H](C)[C@]3(O)[C@@H]4C=C(C)C(=O)[C@@]4(O)[C@H](O)C(CO)=C[C@H]3[C@@H]1C2(C)C` [stelleracin C], the IC50 (HIV-1) is given as 0.0023 µM.
